Test results as given in publication PMC9278437 (Journal of Enzyme Inhibition and Medicinal Chemistry, 2022).

How the values were obtained:
[1] = tested on: breast cancer (MCF-7) cell line; test: In vitro anti-proliferative activity, MTT assay, MCF-7; format: cell-based, human; settings: for IC50: Homo sapiens, MCF7, 48 h, read-out: In vitro IC50 (nM) Mean ± SD MCF-7, MTT, 48 h, mean ± SD, n = 3; for In vitro IC50 (nM) Mean ± SD MCF-7: MTT, 48 h, n = 3
CDK2/cyclin A2 = CDK2/cyclin A2 (Homo sapiens, UniProt P24941); test: biochemical
[2] = tested on: hepatocellular carcinoma (HepG-2) cell line; test: In vitro anti-proliferative activity, MTT assay, HepG-2; format: cell-based, human; settings: for IC50: Homo sapiens, HepG2, 48 h, read-out: In vitro IC50 (nM) Mean ± SD HepG-2; for In vitro IC50 (nM) Mean ± SD HepG-2: MTT, 48 h, n = 3
[3] = tested on: colorectal carcinoma (HCT-116) cell line; test: In vitro anti-proliferative activity, MTT assay, HCT-116; format: cell-based, human; settings: 48 h, n = 3

| IC50 [1] | IC50 (CDK2/cyclin A2) | IC50 [2] | In vitro IC50 (nM) Mean ± SD HepG-2 [2] | In vitro IC50 (nM) Mean ± SD MCF-7 [1] | SMILES | In vitro IC50 (nM) Mean ± SD HCT-116 [3] |
| --- | --- | --- | --- | --- | --- | --- |
| 150 ± 1.5 nM | 1340 ± 21 nM | 603 ± 1.9 nM |  |  | N=c1c2cnn(C(=O)CNc3ccc(F)cc3)c2ncn1N [Compound 4, 1-(5-Amino-4-imino-4,5-dihydro-1H-pyrazolo[3,4-d]pyrimidin-1-yl)-2-((4-fluorophenyl)amino)ethan-1-one] |  |
| 663 ± 1.4 nM | 2050 ± 50 nM | 690 ± 0.48 nM |  |  | N=c1c2cnn(C(=O)CNc3ccc(F)cc3)c2ncn1N[C@@H]1O[C@H](CO)[C@@H](O)[C@H](O)[C@H]1O [Compound 5, 1-(4-Imino-5-((ß-D-glucopyranosyl)amino)-4,5-dihydro-1H-pyrazolo[3,4-d]pyrimidin-1-yl)-2-((4-fluorophenyl)amino)ethan-1-one] |  |
| 621 ± 2.7 nM | 559 ± 13 nM | 98 ± 0.78 nM |  |  | N=c1c2cnn(C(=O)CNc3ccc(F)cc3)c2ncn1N[C@@H]1OC[C@@H](O)[C@H](O)[C@H]1O [Compound 6, 1-(4-Imino-5-((ß-D-xylopyranosyl)amino)-4,5-dihydro-1H-pyrazolo[3,4-d]pyrimidin-1-yl)-2-((4-fluorophenyl)amino)ethan-1-one] |  |
| 937 ± 0.93 nM | 274 ± 5 nM | 63 ± 0.11 nM | moderate activity |  | O=C(CNc1ccc(F)cc1)n1ncc2c1ncn1[nH]c(=S)nc21 [Compound 7, 1-(2-Thioxo-2,3-dihydro-7H-pyrazolo[4,3-e][1,2,4]triazolo[1,5-c]pyrimidin-7-yl)-2-((4-fluorophenyl)amino)ethan-1-one] |  |
| 72 ± 0.53 nM | 1060 ± 59 nM | 8 ± 0.34 nM | potent activity |  | N#CCSc1nc2c3cnn(C(=O)CNc4ccc(F)cc4)c3ncn2n1 [Compound 8, 2-((7-((4-Fluorophenyl)glycyl)-7H-pyrazolo[4,3-e][1,2,4]triazolo[1,5-c]pyrimidin-2-yl)thio)acetonitrile] |  |
| 60 ± 0.49 nM | 881 ± 49 nM | 690 ± 1.6 nM | no activity |  | COC(CSc1nc2c3cnn(C(=O)CNc4ccc(F)cc4)c3ncn2n1)OC [Compound 9, 1-(2-((2,2-Dimethoxyethyl)thio)-7H-pyrazolo[4,3-e][1,2,4]triazolo[1,5-c]pyrimidin-7-yl)-2-((4-fluorophenyl)amino)ethan-1-one] |  |
| 95 ± 1.9 nM | 506 ± 11 nM | 987 ± 2 nM |  | potent activity | O=C(CNc1ccc(F)cc1)n1ncc2c1ncn1nc(SCC(O)CO)nc21 (stereo not drawn) [Compound 10, 1-{2-[(2,3-Dihydroxypropyl)thio]-7H-pyrazolo[4,3-e][1,2,4]triazolo[1,5-c]pyrimidin-7-yl}-2-((4-fluorophenyl)amino)ethan-1-one] |  |
| 63 ± 1.1 nM | 89 ± 5 nM | 49 ± 0.17 nM | moderate activity | good activity | CC(=O)OCC(CSc1nc2c3cnn(C(=O)CNc4ccc(F)cc4)c3ncn2n1)OC(C)=O (stereo not drawn) [Compound 11, 3-((7-((4-Fluorophenyl)glycyl)-7H-pyrazolo[4,3-e][1,2,4]triazolo[1,5-c]pyrimidin-2-yl)thio)propane-1,2-diyl diacetate] | most potent cytotoxic results |
| 613 ± 0.33 nM | 961 ± 19 nM | 928 ± 0.97 nM | inactive | inactive | O=C(CNc1ccc(F)cc1)n1ncc2c1ncn1nc(SCCO)nc21 [Compound 12, 1-(2-((2-Hydroxyethyl)thio)-7H-pyrazolo[4,3-e][1,2,4]triazolo[1,5-c]pyrimidin-7-yl)-2-((4-fluorophenyl)amino)ethan-1-one] | inactive |
| 55 ± 0.43 nM | 130 ± 7 nM | 74 ± 1.1 nM | moderate activity | good activity | CC(=O)OCCSc1nc2c3cnn(C(=O)CNc4ccc(F)cc4)c3ncn2n1 [Compound 13, 2-((7-((4-Fluorophenyl)glycyl)-7H-pyrazolo[4,3-e][1,2,4]triazolo[1,5-c]pyrimidin-2-yl)thio)ethyl acetate] | most potent cytotoxic results |
| 144 ± 0.47 nM |  | 19 ± 0.29 nM |  |  | CNC(=O)c1cc(Oc2ccc(NC(=O)Nc3ccc(Cl)c(C(F)(F)F)c3)cc2)ccn1 [Sorafenib, reference compound] |  |
